Results reported in a melting point compilation (Tetko et al.; mined from patent text by program, amines drawn as free bases though some values may be those of a salt).

Q: Which melting point does the source give for FC(F)(F)c1ccc(-c2oncc2CCl)cc1 here?
A: 99 to 100 °C

Q: Which melting point does the source give for Cc1ccc(S(=O)(=O)Oc2c(C(=O)c3ccc(S(C)(=O)=O)cc3Cl)cnn2C)cc1 here?
A: 141 to 145 °C

Q: Which melting point does the source give for COc1ccc(N2CCN(C(=O)CC3CCc4ccccc43)CC2)cc1 (stereo not drawn) here?
A: 111 to 112 °C

Q: For COCn1cc(-c2coc3ccc(-c4nnc(C)o4)cc23)cn1, which melting point is on record?
A: 128 to 129 °C

Q: With CC(C)c1nc2ccn(Cc3ccccc3)c(=O)c2n1Cc1cccc(-c2ccc(C(=N)N)cc2)c1 as the molecule, how does the melting point read?
A: > 300 °C

Q: With NC(=O)NC1CCCc2sccc21 (stereo not drawn) as the molecule, how does the melting point read?
A: 203 to 207 °C

Q: For O=[N+]([O-])c1ccccc1C(O)c1cc2c(Oc3ccc(Cl)cc3)cncc2s1 (stereo not drawn), which melting point is on record?
A: 85 to 90 °C

Q: Which melting point does the source give for CN1CCc2cc(S(=O)(=O)Nc3cnc4ccc(Cl)cc4n3)ccc21 here?
A: 213 to 214 °C

Q: With COc1ccc(COc2c(C)c(C)c3c(c2C)C(c2ccc(N(C)C)cc2)C(C)(C)O3)cc1 (stereo not drawn) as the molecule, how does the melting point read?
A: 105 to 107 °C

Q: For CCCCOC(=O)N=C(NC(=O)c1ccccc1)SC, which melting point is on record?
A: 99 to 101 °C

Q: With NS(=O)(=O)c1c(Cl)ccc(NC(=O)Nc2cccc(Cl)c2Cl)c1O as the molecule, how does the melting point read?
A: 241 to 242 °C

Q: Which melting point does the source give for O=Cc1ccc(Cc2ccccc2)cc1 here?
A: 142 to 144 °C

Q: Which melting point does the source give for CC(C(=O)N1CCOCC1)N1CCN(c2ccccc2)CC1 (stereo not drawn) here?
A: 105 to 107 °C

Q: Which melting point does the source give for O=C(NCCO)c1cccc(-c2ccc3c(c2)N(c2cccc(Cl)c2Cl)CC3)c1 here?
A: 162 to 163 °C

Q: With CC(=O)N1C(C)(C)CC(OC(=O)CC(c2cc(C(C)(C)C)c(O)cc2C)c2cc(C(C)(C)C)c(O)cc2C)CC1(C)C as the molecule, how does the melting point read?
A: 270 °C

Q: With CCC(CC)NC(=O)c1cc(-c2cnc3[nH]cc(C(=O)C4(C)CCCCC4)c3n2)cs1 as the molecule, how does the melting point read?
A: 273 to 275 °C

Q: With O=C(O)C1CCC=C(c2ccccc2)C1 (stereo not drawn) as the molecule, how does the melting point read?
A: 77 to 80 °C

Q: For CC(C)(C)OC(=O)N[C@@H](Cc1cc(F)cc(F)c1)[C@H](O)CO, which melting point is on record?
A: 122 °C

Q: For Cc1cc(C)c2c(c1)C=C(/C=C/C=O)CO2, which melting point is on record?
A: 76 to 78 °C

Q: With CN(Cc1cccc(-c2ccc(CC3SC(=O)NC3=O)cc2)c1)C(=O)c1cccnc1 (stereo not drawn) as the molecule, how does the melting point read?
A: 115 °C

Q: With CC(C)(CCCCC(=O)CCCCC(C)(C)C(=O)O)C(=O)O as the molecule, how does the melting point read?
A: 60 to 61.5 °C

Q: Which melting point does the source give for CC(C)(C)C(O)(Cn1cncn1)C1CCCCC1 (stereo not drawn) here?
A: 100 to 102 °C

Q: Which melting point does the source give for O=C1CC(c2ccc3oc4c(c3c2)CCCC4)CC(=O)O1 here?
A: 164 to 166 °C

Q: For CCCCCc1nnc(Sc2cc(O)c(C(C)(C)CC(C)(C)C)cc2O)n1-c1ccccc1, which melting point is on record?
A: 198 °C

Q: Which melting point does the source give for CCCCc1c(C(=O)c2ccc(OC)cc2)n(C)c2ccc([N+](=O)[O-])cc12 here?
A: 102 °C

Q: Which melting point does the source give for O=C(O)c1cc(S(=O)(=O)n2ccc3ccccc32)ccc1Br here?
A: 189 to 191 °C

Q: Which melting point does the source give for C[C@H]1N(S(C)(=O)=O)CO[C@@]1(Cn1cncn1)c1ccc(Cl)cc1Cl (relative stereo) here?
A: 167 to 172 °C

Q: For COc1nc(Cl)nc(Cl)c1C#N, which melting point is on record?
A: 117 °C

Q: With CCOCCCc1ccc(Oc2ccc3c(c2)C=C(C(=O)Nc2ccc(CN(C)C4CCOCC4)cc2)CCS3(=O)=O)cc1 as the molecule, how does the melting point read?
A: 156 to 157 °C

Q: Which melting point does the source give for COC1=C(Cl)C(Cl)C(C(=O)C2(C3=CCCCC3)C=CC(OC)=C(Cl)C2Cl)(C2=CCCCC2)C=C1 (stereo not drawn) here?
A: 126 to 129 °C

Q: For CC(C)(C)COc1ccc(-n2ncc(C(=O)O)c2Cl)cc1C#N, which melting point is on record?
A: 212 °C

Q: With Cc1c(C(=O)Nc2ccc(N3CCCC3)c(C#N)c2)cnn1-c1ccc(F)cc1 as the molecule, how does the melting point read?
A: 185 °C

Q: For Cc1ccc(S(=O)(=O)n2ccc3c(C=O)cccc32)cc1, which melting point is on record?
A: 144 to 146 °C

Q: For COc1cc([N+](=O)[O-])ccc1-c1cncs1, which melting point is on record?
A: 125 to 128 °C

Q: Which melting point does the source give for COC(=O)c1cc(O)nn1C1CCCCC1 here?
A: 195 to 196 °C

Q: For O=C(O)CCCCCCc1cn(-c2cccnc2)c2ccccc12, which melting point is on record?
A: 120 to 122 °C

Q: For N#CCN(CC#N)c1nc(Cl)nc(Cl)n1, which melting point is on record?
A: 154 to 158 °C

Q: For CC(C)N(CCN1C(=O)C(=O)c2ccccc21)C1CCCCC1, which melting point is on record?
A: 103 to 106 °C

Q: Which melting point does the source give for COc1ccc2c(C(=O)N(C=O)CC(=O)O)cccc2c1C(F)(F)F here?
A: 142 to 144 °C

Q: Which melting point does the source give for COc1cccc([C@H]2O[C@H](CC(=O)NCc3ccc(C(=O)O)cc3)C(=O)N(CC(C)(C)CO)c3ccc(Cl)cc32)c1OC here?
A: 143 to 144 °C

Q: Which melting point does the source give for OCc1cn(-c2ccc(OC(F)(F)F)c(Cl)c2)cn1 here?
A: 115 to 116 °C

Q: For CC(=O)Nc1cccc(C=CC(=O)C2C(=O)OC(=O)C(C(C)=O)=C2O)c1 (stereo not drawn), which melting point is on record?
A: 222 to 224 °C

Q: Which melting point does the source give for N#Cc1ccc(C(F)(F)F)cc1N=NN(C(=O)Nc1ccccc1)c1cc(C(F)(F)F)ccc1C#N here?
A: 157 to 158 °C

Q: Which melting point does the source give for COc1ccccc1-n1nnc2cc(F)c(N3C(=O)C4=C(CCCC4)C3=O)cc21 here?
A: 83 to 87 °C

Q: For CC(C)CCc1nc2ccccn2c(=O)c1-c1ccc(Cl)cc1, which melting point is on record?
A: 146 to 149 °C

Q: Which melting point does the source give for O=C(O)CCP(=O)(O)c1ccccc1 here?
A: 158 to 161 °C

Q: Which melting point does the source give for CCOC(=O)c1c(C(F)(F)F)nc(C(F)(F)F)c(C(=O)OCC)c1N here?
A: 52 to 58 °C

Q: Which melting point does the source give for C=CCc1cc(C#CC2(O)CN3CCC2CC3)ccc1OCC(=O)OCC (stereo not drawn) here?
A: 95.9 °C

Q: Which melting point does the source give for O=C(O)Cc1c(C(=O)c2cccs2)[nH]c2cc(Cl)ccc12 here?
A: 177 to 178 °C

Q: For Cc1cc(N2CCC(=O)CC2)nn2cnnc12, which melting point is on record?
A: 196 to 199 °C

Q: With CCCCN(CC)c1nc(C)nc2c1c(C)cn2-c1c(C)cc(CF)cc1C as the molecule, how does the melting point read?
A: 163 to 165 °C

Q: With CCCCCCCCCCCCCCCCS(=O)(=O)OCc1cc(OC)c(OC)cc1[N+](=O)[O-] as the molecule, how does the melting point read?
A: 81 to 82 °C

Q: Which melting point does the source give for Cc1cc(F)ccc1NCC(=O)NCc1ccccc1 here?
A: 75 to 76 °C

Q: Which melting point does the source give for CC(C)(C)OC(=O)N1CCN(C(=O)CCc2cccnc2)CC1 here?
A: 125 to 126 °C

Q: For CCCCCCCOc1ccc(COc2ccc(-c3ccc(OC(C)CCCCCC)cc3)cc2)cc1 (stereo not drawn), which melting point is on record?
A: 98.1 °C

Q: With O=C(CCCCO)c1cccnc1 as the molecule, how does the melting point read?
A: 36 to 38 °C

Q: Which melting point does the source give for CCCN(CCC)C(=O)n1cnc(S(C)(=O)=O)n1 here?
A: 94 °C

Q: Which melting point does the source give for COc1ccc2c(c1O)COCc1cc(OC)c(OC)c(OC)c1-2 here?
A: 145 to 147 °C

Q: For CC(C#N)(CCC(=O)O)SC(=S)c1ccccc1 (stereo not drawn), which melting point is on record?
A: 97 to 99 °C

Q: With CC(C)(C)OC(=O)N1CCC2(CC1)NC(=O)N(CC(O)CO)C2=O (stereo not drawn) as the molecule, how does the melting point read?
A: 167 to 170 °C

Q: With O=c1[nH]nccc1NCCCNCCOc1cccc2c1OCCO2 as the molecule, how does the melting point read?
A: 118 to 120 °C

Q: With CNC(=O)N(C)c1nnc(C(C)(C)CC#N)s1 as the molecule, how does the melting point read?
A: 133 to 135 °C

Q: With CN1CCN(c2cc3ccccc3c(=O)[nH]2)CC1CO (stereo not drawn) as the molecule, how does the melting point read?
A: 173 to 174 °C

Q: With CCCc1nc(S(C)=O)c(C(=O)OCC)n1Cc1cc2c(cc1Cl)OCO2 (stereo not drawn) as the molecule, how does the melting point read?
A: 187 °C

Q: For CCOc1ccc2c(c1)n(C1CCCCC1)c(=O)n2Cc1ccc(NC(=O)N(CC)CC)cc1OC, which melting point is on record?
A: 158 °C

Q: Which melting point does the source give for CC12CCC(C(=Cc3ccc([N+](=O)[O-])cc3)C1=O)C2(C)C (stereo not drawn) here?
A: 158 °C

Q: Which melting point does the source give for Cc1cc(C#N)cc(C(=O)Nc2ccnc(Cl)c2)n1 here?
A: 238 °C

Q: For CCn1c(CCO)nc(N2CCc3ccccc3CC2)c(C#N)c1=O, which melting point is on record?
A: 114 to 115 °C

Q: For CCOc1cc(C=CC(C)=O)ccc1OC, which melting point is on record?
A: 95 to 96 °C

Q: Which melting point does the source give for NC(Cc1nc2cc(Cl)ccc2nc1CP(=O)(O)O)C(=O)O (stereo not drawn) here?
A: 181 to 192 °C

Q: Which melting point does the source give for CCCn1c(=O)n2c(C)nnc2c2[nH]cnc21 here?
A: 298 to 299 °C

Q: Which melting point does the source give for Nc1c(Cl)cc(-c2nc(C3CCNCC3)no2)c2c1CCO2 here?
A: 219 °C

Q: Which melting point does the source give for COc1ccc(-c2[nH]nc3c2C(=O)c2c(NC(=O)Cc4cccc(OC)c4)cccc2-3)cc1 here?
A: > 300 °C
